According to patent US20040053786A1, “Insecticidal 1,8-naphthalenedicarboxamides” (priority 2000, published 2004):

With `CNC(=O)c1cccc2cccc(NC(=O)c3cccs3)c12` [Compound 120, N-methyl 8-[(2-thienyl)carbonylamino]-1-naphthalenecarboxamide] the melting point was 215 °C.
